US5235045A, “Non-azo naphthalimide dyes” (priority 1992, dated 1993)
Where two headings read alike, the source gives them in different places.

Columns and labels:
H9 cells [1] = experiment: Effects on H9 cells of Ed6Br with prior activation by 420 nm light (Trypan Blue); assay type: cell-based; settings: Homo sapiens, H9, 24 h, read-out: % Viable Cells
H9 cells [2] = experiment: Effect of Ed6Br and 420 nm light on H9 cells (Trypan Blue); assay type: cell-based, human; parameters: live cells / dead cells: unit not given here
Experimental: H9 cells (an immortal human T-cell lymphoma) were cultured in RPMI-1640 medium containing 10% additional fetal calf serum hold in air with a 5% CO2 atmosphere at 37.5° C. to a cell density in the range of 10^5 -10^7 per ml. Cells were, harvested by centrifugation and six 3ml. […] The remaining 3 samples wrapped in aluminum foil were handled identically but not irradiated. Immediately after irradiation, the cells in all samples were sedimented by centrifugation at 450 x g for 10 minutes and the cell pellets individually resuspended to the original 3 ml volume of RPMI-1640 containing an additional 10% fetal calf serum plus Gentamycin antibiotic. The samples were incubated for 24 hr. under normal culture conditions cited above. Cell viability was assessed by Trypan Blue dye exclusion counts using a standard hemocytometer after 24 hr incubation. […]

[3] = test system: Herpes simplex virus type 1; experiment: Effect of DiEd6Br and light on HSV-1 containing 15% fetal calf serum and human blood platelets (plaque assay); assay type: cell-based, MacIntyre strain; settings: for log reduction at 0.156 µM / log reduction at 0.625 µM: Human alphaherpesvirus 1, Platelet, light or radiation study, read-out: Log10 Reduction
[4] = 5 μM, irradiated 10 J/cm^2, 420 nm
[5] = 25 μM, irradiated 10 J/cm^2, 420 nm

CCCCCCNc1c(Br)cc2c3c(cccc13)C(=O)N(CCCCCC)C2=O [Compound VII, 3-bromo-4-(hexyl)amino-N-hexyl-1,8-naphthalimide]
viability at 100 µM (H9 cells [1]; no previous light activation): 28% | viability at 100 µM (H9 cells [1]; previous light activation): 0% | Cells/ml (H9 cells [2]; 5 μM, dark): 7.70 × 10^5 Cells/ml | dead cells (H9 cells [2]; 5 μM, dark): 12 | live cells (H9 cells [2]; 5 μM, dark): 77 | Cells/ml (H9 cells [2]; [4]): 0.0 Cells/ml | dead cells (H9 cells [2]; [4]): 47 | live cells (H9 cells [2]; [4]): 0 | Cells/ml (H9 cells [2]; 25 μM, dark): 9.9 × 10^5 Cells/ml | dead cells (H9 cells [2]; 25 μM, dark): 11 | live cells (H9 cells [2]; 25 μM, dark): 99 | Cells/ml (H9 cells [2]; [5]): 0.0 Cells/ml | dead cells (H9 cells [2]; [5]): 41 | live cells (H9 cells [2]; [5]): 0 | H9 cells inactivated or killed (H9 cells [2]; 5 mM or greater (so in the source), activated by light, 1440 min): ~100% | cytotoxicity at 25 µM (H9 cells [2]; Homo sapiens, H9, 24 h, 25 µM, dark, printed approximately 10% or less, read-out: cells inactivated in absence of light): ≤ 10% | viability at 5 µM (H9 cells [2]; Homo sapiens, H9, light or radiation study, 24 h, 5 μM, irradiated 10 J/cm^2, 420 nm): 0% | viability at 25 µM (H9 cells [2]; Homo sapiens, H9, light or radiation study, 24 h, 25 μM, irradiated 10 J/cm^2, 420 nm): 0%

CCCCCCN1C(=O)c2cccc3c(NCCNC(=O)CCCCC(=O)NCCNc4c(Br)cc5c6c(cccc46)C(=O)N(CCCCCC)C5=O)c(Br)cc(c23)C1=O [Compound XLIV]
PFU/ml ([3]; 0.156 μM, 5 J/cm^2): 7.4 × 10^7 PFU/ml | PFU/ml ([3]; 0.156 μM, 10 J/cm^2): 6.0 × 10^7 PFU/ml | PFU/ml ([3]; 0.156 μM, 20 J/cm^2): 1.5 × 10^7 PFU/ml | PFU/ml ([3]; 0.156 μM, 40 J/cm^2): 4.5 × 10^6 PFU/ml | PFU/ml ([3]; 0.156 μM, 60 J/cm^2): 1.5 × 10^6 PFU/ml | PFU/ml ([3]; 625 μM (so in the source), 5 J/cm^2): 5.0 × 10^5 PFU/ml | PFU/ml ([3]; 625 μM (so in the source), 10 J/cm^2): 4.5 × 10^5 PFU/ml | PFU/ml ([3]; 625 μM (so in the source), 20 J/cm^2): 2.0 × 10^4 PFU/ml | PFU/ml ([3]; 625 μM (so in the source), 40 J/cm^2): 1.1 × 10^3 PFU/ml | PFU/ml ([3]; 625 μM (so in the source), 60 J/cm^2): None detected | log reduction at 0.156 µM ([3]; 0.156 μM, 5 J/cm^2): 0.01 | log reduction at 0.156 µM ([3]; 0.156 μM, 10 J/cm^2): 0.1 | log reduction at 0.156 µM ([3]; 0.156 μM, 20 J/cm^2): 0.7 | log reduction at 0.156 µM ([3]; 0.156 μM, 40 J/cm^2): 1.22 | log reduction at 0.156 µM ([3]; 0.156 μM, 60 J/cm^2): 1.7 | log reduction at 0.625 µM ([3]; 5 J/cm^2): 2.18 | log reduction at 0.625 µM ([3]; 10 J/cm^2): 2.22 | log reduction at 0.625 µM ([3]; 20 J/cm^2): 3.58 | log reduction at 0.625 µM ([3]; 40 J/cm^2): 4.84 | log reduction at 0.625 µM ([3]; 60 J/cm^2): 7 | kill of HSV-1 ([3]; as low as 0.625 mM, 60 J/cm^2, 15% serum proteins and platelets): > 99.86%
